Measured values as given in US12286442B2, “Methods and materials for increasing transcription factor eb polypeptide levels” (University of Pittsburgh—Of the Commonwealth System of …, priority 2019, dated 2025).

How the values were obtained:
[1] = test system: BEAS-2B cells; test: Toxicity: compound concentration needed to induce greater than 50 percent of cell loss; format: cell-based, human; conditions: 18 hours incubation
Method in brief: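 BEAS-2B cells stably expressing TFEB-EGFP treated with serial compound dilutions for 18 h, then PFA-fixed, DAPI-stained and imaged. Toxicity scored as the concentration causing >50% cell loss, binned as ≥25 μM, <25 and >1 μM, or ≤1 μM ("+++").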

[2] = test system: TFEB; test: High content screen measuring TFEB nuclear accumulation (TFEB nuclear/cytosol ratio) in BEAS-2B cells stably expressing TFEB-EGFP; format: cell-based, human; conditions: 18 hours incubation
Method in brief: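 BEAS-2B cells stably expressing TFEB-EGFP (~2300–2500 per well) pre-incubated 8 hours, then exposed to serially diluted compounds (DMEM low glucose, 2% FBS) for 18 hours, PFA-fixed and DAPI-stained. Imaged nuclear (DAPI mask) vs cytosolic (expanded mask) TFEB-GFP; activity = minimal concentration raising nuclear/cytosol ratio by 25%.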

Structure (SMILES) | toxicity (compound concentration needed to induce greater than 50 percent of cell loss) [1] | efficacy (minimal compound concentration needed to increase TFEB nuclear/cytosol ratio by 25%) [2]
O=c1c2ccccc2n(CCN2CCOCC2)c(=O)n1-c1ccccc1 [Compound 229] | + (cell loss of greater than 50 percent at a concentration that equals or is greater than 25 μM was represented as) | + (“+” equals >25 μM)
O=C(Cn1c(=O)n(-c2ccccc2)c(=O)c2ccccc21)N1CCOCC1 [Compound 230] | + (cell loss of greater than 50 percent at a concentration that equals or is greater than 25 μM was represented as) | + (“+” equals >25 μM)
CCc1ccc(-n2c(=O)c3ccc(C(=O)NCCc4ccccc4)cc3n(Cc3ccccc3C#N)c2=O)cc1 [Compound 231] | + (cell loss of greater than 50 percent at a concentration that equals or is greater than 25 μM was represented as) | ++ (“++” equals between ≤25 μM and >1 μM)
O=C(Cc1ccc(-n2c(=O)c3ccccc3n(Cc3ccccc3F)c2=O)cc1)NC1CC1 [Compound 232] | + (cell loss of greater than 50 percent at a concentration that equals or is greater than 25 μM was represented as) | + (“+” equals >25 μM)
C=CCn1c(=O)c2ccc(C(=O)NCc3ccccc3)cc2n(Cc2ccc(C)cc2)c1=O [Compound 233] | + (cell loss of greater than 50 percent at a concentration that equals or is greater than 25 μM was represented as) | + (“+” equals >25 μM)
O=C(NCc1ccco1)c1ccc2c(=O)n(-c3ccccc3)c(=O)n(Cc3cccc(F)c3)c2c1 [Compound 234] | + (cell loss of greater than 50 percent at a concentration that equals or is greater than 25 μM was represented as) | ++ (“++” equals between ≤25 μM and >1 μM)
COc1ccc(-n2c(=O)c3ccccc3n(Cc3ccccc3F)c2=O)cc1 [Compound 235] | + (cell loss of greater than 50 percent at a concentration that equals or is greater than 25 μM was represented as) | ++ (“++” equals between ≤25 μM and >1 μM)
COc1ccc(-n2c(=O)c3ccc(C(=O)NCCc4ccccc4)cc3n(Cc3cccc(F)c3)c2=O)cc1 [Compound 236] | + (cell loss of greater than 50 percent at a concentration that equals or is greater than 25 μM was represented as) | ++ (“++” equals between ≤25 μM and >1 μM)
CCc1ccc(-n2c(=O)c3ccccc3n(Cc3cccc(F)c3)c2=O)cc1 [Compound 237] | + (cell loss of greater than 50 percent at a concentration that equals or is greater than 25 μM was represented as) | ++ (“++” equals between ≤25 μM and >1 μM)
O=C(NCCc1ccccc1)c1ccc2c(=O)n(-c3ccccc3)c(=O)[nH]c2c1 [Compound 238] | + (cell loss of greater than 50 percent at a concentration that equals or is greater than 25 μM was represented as) | + (“+” equals >25 μM)
Fc1cc(Nc2nc(-c3ccncc3)cc3ncccc23)cc2cc[nH]c12 [Compound 239] | + (cell loss of greater than 50 percent at a concentration that equals or is greater than 25 μM was represented as) | ++ (“++” equals between ≤25 μM and >1 μM)
CC(C)c1nc2ccc(Nc3nc(-c4ccncc4)cc4ncccc34)cc2s1 [Compound 240] | + (cell loss of greater than 50 percent at a concentration that equals or is greater than 25 μM was represented as) | +++ (“+++” equals ≤1 μM)
